Several values for one entry are separate records, joined by “and”; a condition that tells them apart may be missing. Equal values may be shown once. Activity calls are given as the source filed them.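 How the source made its calls: active means compounds raising the signal whose fitted half-maximal concentration is at or below their top tested dose (cut at about 25 µM in these data); inconclusive means flat fit at 30 to 70% activity, or a poor fit; inactive means the rest.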
Test system: INS-1E rat beta cells, no cytokines, CellTiter-Glo ATP, 48 h
Test: cytokine-free beta-cell viability effect – INS-1E rat cells, ATP luminescence, cherry pick, counter-screen for beta-cell apoptosis protection project, dose response (AID 463229)

First: Cn1c(SCC(=O)N/N=C/c2ccc([N+](=O)[O-])s2)nnc1-c1ccc(Cl)cc1
Second: Cc1ccc(Cl)cc1N1CCN(C(=O)CSc2nnc3n2C(C)(C)Cc2ccccc2-3)CC1
The AC50 of the first is 1.7-fold higher: 12.1 µM for the first, 7.07 µM for the second.

First: CCCCCCCCCn1c2c(c(=N)c3c1CCC3)CCC2
Second: CCCCCCc1cc2cc(C(=O)Nc3cccc(OC)c3)c(=O)oc2cc1O
The AC50 of the first is lower: less than 0.195 µM for the first, 4.41 µM for the second.

First: CCCCOc1ncnc2c1[nH]c1ccc(F)cc12
Second: COCc1ccc(O)c2ncccc12
The AC50 of the first is 3-fold lower: 5.3 µM for the first, 15.9 µM for the second.

First: O=C(N/N=C\c1cc(Br)ccc1O)c1ccc(S(=O)(=O)N2CCCCC2)cc1
Second: CCn1c(=NC(=O)c2ccc(S(=O)(=O)N3CCOCC3)cc2)sc2cccc(OC)c21
The AC50 of the first is 2.4-fold lower: 3.54 µM for the first, 8.4 µM for the second.

First: Cc1[nH]n(-c2ccccc2)c(=O)c1/C=N/NC(=O)c1cccc(F)c1
Second: CCn1c(C)nc2cc(C(=O)N/N=C/c3cccc(O)c3O)ccc21
The AC50 of the first is 2-fold lower: 4.23 µM for the first, 8.42 µM for the second.

Going from O=C(NCc1cccnc1)c1cc(-c2ccco2)on1 to O=C(Nc1ccc(-c2noc(-c3cccs3)n2)cc1)c1cccnc1, the AC50 rises from 2.27 µM to 13 µM (5.7-fold).

Compared with Cc1ccc(NC(=O)C2CCN(S(=O)(=O)c3ccc4c(c3)NC(=O)C(C)S4)CC2)cc1Cl (stereo not given), O=C(Nc1nc2ccc(F)cc2s1)C1CCN(S(=O)(=O)c2cc([N+](=O)[O-])ccc2Cl)CC1 is 1.5-fold higher in AC50: 4.64 µM for the first, 7.01 µM for the second.

CN(C)C(=O)c1ccc(NC(=O)c2cccnc2)cc1 and Cc1ccc2nc(-c3ccc(NC(=O)c4cccnc4)cc3)oc2c1 are within 1.5-fold of each other in AC50: 7.27 µM for the first, 7.8 µM for the second.

Compared with C[n+]1c2n(c3ccccc31)N=C(c1ccc(Cl)cc1)CS2, O=C(c1ccco1)N1N=C(c2ccc(Br)cc2)CC1c1ccco1 (stereo not given) is 5.6-fold higher in AC50: 4.29 µM for the first, 24.2 µM for the second.

Cc1ccc2nc(-c3cccc(-c4cccc(Cl)c4)c3)c(NCc3ccccc3)n2c1 and O=C1C=C(c2ccc(F)cc2OCc2ccccc2)C[C@@H](c2ccc(Cl)cc2)C1 are within 1.5-fold of each other in AC50: 7.11 µM for the first, 5.46 µM for the second.

Compared with COc1ccc(C(=O)NC(=S)NNC(=O)c2cnccn2)cc1, CCOc1ccc(S(=O)(=O)NCc2ccncc2)cc1 is 3.2-fold lower in AC50: 5.21 µM for the first, 1.65 µM for the second.

Going from CC(=O)Nc1ccccc1OCC(=O)c1cc(C)n(Cc2cccs2)c1C to COc1ccc(-n2c(=S)[nH]c3cc(C(=O)Nc4ccccc4OC)ccc3c2=O)cc1, the AC50 rises from 1.01 µM to 8.24 µM (8.2-fold).

First: CCCC(=O)NC(c1ccc(OC)c(OC)c1)c1cc(Cl)c2cccnc2c1O (stereo not given)
Second: CCCCC(=O)NC(c1ccc(N(CC)CC)cc1)c1ccc2cccnc2c1O (stereo not given)
The AC50 of the first is 5.5-fold higher: 7.47 µM for the first, 1.37 µM for the second.

COc1ccc(Br)cc1CN1CCN(Cc2c[nH]c3ccccc23)CC1 and CCOc1ccc(CN2CCN(Cc3c[nH]c4ccccc34)CC2)cc1 are within 1.5-fold of each other in AC50: 7.35 µM for the first, 7.75 µM for the second.

Going from Cc1cc(C)c2nc(NNC(=O)c3ccc(S(=O)(=O)N4CC(C)CC(C)C4)cc3)sc2c1 (stereo not given) to Cc1ccc(S(=O)(=O)Nc2ccc(O)c3ccccc23)c(C)c1, the AC50 rises from 4.75 µM to 13.7 µM (2.9-fold).

First: N#C/C(=C/c1ccc(N2CCCCCC2)o1)c1ccc(Cl)cc1
Second: C(=C\c1nc(N2CCCCCC2)c2ccccc2n1)/c1ccccc1
The AC50 of the first is 4.7-fold higher: 24.3 µM for the first, 5.15 µM for the second.

Cc1[nH]nc2nc(SCC(=O)NCCC3=CCCCC3)n(-c3ccc(Br)cc3)c(=N)c12 and Cc1ccc(C(=O)C[n+]2cc(-c3ccccc3)n3c2CCCCC3)cc1 are within 1.5-fold of each other in AC50: 6.36 µM for the first, 6 µM for the second.

Compared with COc1ccc(/C=C/c2cc(-c3ccc(C)cc3)o[n+]2C)cc1, COc1ccc(-c2sc3ccccc3c2-c2ccc(OCCN3CCCCC3)cc2)cc1 is 16-fold higher in AC50: 0.91 µM for the first, 14.8 µM for the second.

First: Cc1ccc(S(=O)(=O)Nc2ccccc2C(=O)Nc2nc(-c3ccc(F)cc3)cs2)cc1
Second: CC(=O)c1cccc(NS(=O)(=O)c2ccc(N/C=C\C(=O)c3ccc(F)cc3)cc2)c1
The AC50 of the first is 1.7-fold lower: 2.92 µM for the first, 4.97 µM for the second.

Going from O=C1N/C(=N\N=C\c2cccnc2)SC1Cc1ccc(SC(F)F)cc1 (stereo not given) to CCOc1ccc(N=Cc2c(C)[nH]n(-c3nc4ccccc4[nH]3)c2=O)cc1, the AC50 falls from 9.68 µM to 2.83 µM (3.4-fold).

First: CNC[C@H](CC1CCCCC1)NC[C@H](Cc1ccccc1)NCCC12CC3CC(CC(C3)C1)C2
Second: COCCN(C(=O)COC(=O)C1CCC(C(C)(C)C)CC1)c1c(N)n(Cc2ccccc2)c(=O)[nH]c1=O (stereo not given)
The AC50 of the first is 2-fold higher: 4.44 µM for the first, 2.17 µM for the second.

Cc1sc2ncnc(NCc3cccs3)c2c1C and Clc1ccccc1Nc1nnc(-c2ccncc2)s1 are within 1.5-fold of each other in AC50: 6.4 µM for the first, 4.64 µM for the second.

Going from CCN1C/C(=C/c2cccc([N+](=O)[O-])c2)C(=O)/C(=C/c2cccc([N+](=O)[O-])c2)C1 to Nc1ccc(Br)cc1-c1nc2ccccc2[nH]c1=O, the AC50 falls from 2.39 µM to 1.32 µM (1.8-fold).

First: O=C(NC(Nc1nc2ccc([N+](=O)[O-])cc2s1)(C(F)(F)F)C(F)(F)F)c1cccnc1
Second: CC1CCN(c2ccc(NC(=O)c3ccc([N+](=O)[O-])o3)cc2)CC1
The AC50 of the first is 3.9-fold lower: 2.58 µM for the first, 10.1 µM for the second.

Compared with Fc1ccccc1/C=N/Nc1nc(-c2ccccn2)nc2ccccc12, CC(C)n1cnc2c(NCc3ccccc3)cc(N[C@H](C)CO)cc21 is 3.9-fold higher in AC50: 3.49 µM for the first, 13.7 µM for the second.

First: CC(C)(C)n1ncc2c(=O)n(Cc3cccc(Cn4cnc5c(cnn5C(C)(C)C)c4=O)c3F)cnc21
Second: CCOc1cc(CNCCc2ccc(S(N)(=O)=O)cc2)ccc1OCc1ccc(Cl)cc1
The AC50 of the first is 1.8-fold lower: 4.32 µM for the first, 7.84 µM for the second.

CC1CCc2c(sc3nc(C4CC4)nc(N4CCN(C(=O)c5ccco5)CC4)c23)C1 (stereo not given) showed an AC50 of 3.01 µM.

With CCCCCCCCCCOC(=O)Cn1c(COc2ccc(OC)cc2)[n+](C)c2ccccc21 the AC50 was 4.96 µM and 3.95 µM.
For Cc1cc(C)n(-c2nc(NCCO)c3c4c(sc3n2)CCCC4)n1, the AC50 was > 26 µM (inactive).

Source: PubChem BioAssay AID463229 (Broad Institute, 2010)
